Results from US9637592B2, “Vitamin functionalized gel-forming block copolymers for biomedical applications” (International Business Machines Corporation, priority 2013, dated 2017).

Assays:
P. aeruginosa = assay: killing efficiency / MBC; type: cell-based, Pseudomonas aeruginosa; settings: drug alone
Method: Procedure for hydrogels: E. coli, P. aeruginosa, S. aureus and C. albicans were obtained from ATCC and reconstituted from its lyophilized form according to the manufacturer's protocol. Bacterial samples were cultured in Tryptic Soy Broth (TSB) solution at 37° C. under constant shaking of 300 rpm. C. albicans was culture in yeast medium at room temperature under constant shaking of 70 rpm. Prior to treatment, the bacterial sample was first inoculated and cultured to enter into log growth phase. To prepare the antimicrobial hydrogels, cationic polymer was first dissolved in filtered HPLC water in a bio-hood. The resultant solution was then added to solid triblock copolymer for dissolution and left to stand 4 hours at room temperature for the formation of the hydrogels (Example 28 and Example 29). […]
[…] The concentration of bacterial solution was adjusted to give an initial optical density (O.D.) reading of approximately 0.07 at 600 nm wavelength on a microplate reader (TECAN, Switzerland), which corresponds to the concentration of McFarland 1 solution (3×10^8 CFU/mL) The bacterial solution was then diluted and an equal volume of bacterial suspension (3×10^5) was added into each well. […] The plates were incubated for 24 hours at 37° C. and the number of colony-forming units (CFU) was counted. […]

C. albicans = type: cell-based, Candida albicans; settings: solution, 5.0 mg/L (5 ppm)
Method: A stock solution of cationic polymer VE/PrBr(1:15) (5 mg) in sterile HPLC grade water (10 ml) was prepared having a final concentration of 500 mg/L (500 ppm). A second stock solution of fluconazole (1 mg) in sterile HPLC grade water (100 ml) was prepared having a final concentration of 10 mg/L (10 ppm). […] Formulation (2) was obtained by combining 125 microliters each of the stock solutions of cationic polymer and fluconazole and diluting the resulting solution with 750 microliters of sterile HPLC grade water.

## Doxycycline [DXY]
P. aeruginosa
  MBC against P. aeruginosa: 20 to 30 mg/L

## Fluconazole
C. albicans
  killing efficiency against C. albicans: 93.53%
